Earlier results in patent publication US9078464B2 (EDIO HEALTHCARE AB, priority 2008, dated 2015).

Conditions: in vivo

absorption from the intestine: around 60%
SMILES: CC(C)CCC[C@@H](C)[C@H]1CC[C@H]2[C@@H]3CC=C4C[C@@H](O)CC[C@]4(C)[C@H]3CC[C@]12C [cholesterol]
